# Activity calls are given as the source filed them. No cut-off for these calls is given here.
# Tests used:
# Candida albicans [1] = test: Antifungal activity against Candida albicans 90028 assessed as fungal growth inhibition at 16 ug/ml measured after 18 hrs by microdilution method relative to control; format: functional; details: read-out: GI
# Candida albicans [2] = test: Antifungal activity against Candida albicans 90028 assessed as fungal growth inhibition at 8 ug/ml measured after 18 hrs by microdilution method relative to control; format: functional; details: read-out: GI
# Candida albicans [3] = test: Antifungal activity against Candida albicans 90028 assessed as fungal growth inhibition at 4 ug/ml measured after 18 hrs by microdilution method relative to control; format: functional; details: read-out: GI
# Candida albicans [4] = test: Antifungal activity against Candida albicans 90028 assessed as fungal growth inhibition at 2 ug/ml measured after 18 hrs by microdilution method relative to control; format: functional; details: read-out: GI
# Candida albicans [5] = test: Antifungal activity against Candida albicans 90028 assessed as fungal growth inhibition at 1 ug/ml measured after 18 hrs by microdilution method relative to control; format: functional; details: read-out: GI
# Candida albicans [6] = test: Antifungal activity against Candida albicans 90028 assessed as fungal growth inhibition at 0.5 ug/ml measured after 18 hrs by microdilution method relative to control; format: functional; details: read-out: GI
# Candida albicans [7] = test: Antifungal activity against Candida albicans 90028 assessed as fungal growth inhibition at 0.25 ug/ml measured after 18 hrs by microdilution method relative to control; format: functional; details: read-out: GI
# Candida albicans [8] = test: Antifungal activity against Candida albicans 90028 assessed as fungal growth inhibition at 0.125 ug/ml measured after 18 hrs by microdilution method relative to control; format: functional; details: read-out: GI
# Candida albicans [9] = test: Antifungal activity against Candida albicans 90028 assessed as fungal growth inhibition at 0.0625 ug/ml measured after 18 hrs by microdilution method relative to control; format: functional; details: read-out: GI
# Candida albicans [10] = test: Antifungal activity against Candida albicans 90028 assessed as fungal growth inhibition at 0.0313 ug/ml measured after 18 hrs by microdilution method relative to control; format: functional; details: read-out: GI
# Candida albicans [11] = test: Antifungal activity against Candida albicans 90028 assessed as fungal growth inhibition at 16 ug/ml measured after 48 hrs by microdilution method relative to control; format: functional; details: read-out: GI
# Candida albicans [12] = test: Antifungal activity against Candida albicans 90028 assessed as fungal growth inhibition at 8 ug/ml measured after 48 hrs by microdilution method relative to control; format: functional; details: read-out: GI
# Candida albicans [13] = test: Antifungal activity against Candida albicans 90028 assessed as fungal growth inhibition at 4 ug/ml measured after 48 hrs by microdilution method relative to control; format: functional; details: read-out: GI
# Candida albicans [14] = test: Antifungal activity against Candida albicans 90028 assessed as fungal growth inhibition at 2 ug/ml measured after 48 hrs by microdilution method relative to control; format: functional; details: read-out: GI
# Candida albicans [15] = test: Antifungal activity against Candida albicans 90028 assessed as fungal growth inhibition at 1 ug/ml measured after 48 hrs by microdilution method relative to control; format: functional; details: read-out: GI
# Candida albicans [16] = test: Antifungal activity against Candida albicans 90028 assessed as fungal growth inhibition at 0.5 ug/ml measured after 48 hrs by microdilution method relative to control; format: functional; details: read-out: GI
# Candida albicans [17] = test: Antifungal activity against Candida albicans 90028 assessed as fungal growth inhibition at 0.25 ug/ml measured after 48 hrs by microdilution method relative to control; format: functional; details: read-out: GI
# Candida albicans [18] = test: Antifungal activity against Candida albicans 90028 assessed as fungal growth inhibition at 0.125 ug/ml measured after 48 hrs by microdilution method relative to control; format: functional; details: read-out: GI
# Candida albicans [19] = test: Antifungal activity against Candida albicans 90028 assessed as fungal growth inhibition at 0.0625 ug/ml measured after 48 hrs by microdilution method relative to control; format: functional; details: read-out: GI
# Candida albicans [20] = test: Antifungal activity against Candida albicans 90028 assessed as fungal growth inhibition at 0.0313 ug/ml measured after 48 hrs by microdilution method relative to control; format: functional; details: read-out: GI
# Candida albicans [21] = test: Antifungal activity against Candida albicans 90028 assessed as fungal growth inhibition measured after 48 hrs by microdilution method; format: functional
# Candida albicans [22] = test: Fungicidal activity against Candida albicans 90028 preincubated for 48 hrs followed by plating on SD agar and measured after 48 hrs; format: functional; details: time 96 hrs
# Candida albicans [23] = test: Antifungal activity against Candida albicans 90028 infected in Galleria mellonella larvae assessed as increase in larvae survival at MFC measured 96 hrs post-infection relative to control; format: functional
# Vero = test: Cytotoxicity against African green monkey Vero cells at 0.25 to 8 ug/ml after 18 hrs by XTT assay relative to control; format: cell-based; details: chlorocebus sabaeus, at 0.25 to 8 µg/mL, dose 0.25-8 µg/ml
# [24] = Cytotoxicity against African green monkey Vero cells by XTT assay; format: cell-based; details: chlorocebus sabaeus
# [25] = Cytotoxicity against human MRC5 cells by CellTiter 96 Aqueous One Solution Reagent based assay; format: cell-based
# [26] = Toxicity in Galleria mellonella larvae assessed as survival at 16 ug/ml relative to control; details: at 16 µg/mL
# Candida albicans [27] = test: Antifungal activity against Candida albicans 90028 infected in Galleria mellonella larvae at 4 ug/ml by H and E staining based histological analysis; format: functional, organism-based; details: dose 4.0 µg/ml
# Candida albicans [28] = test: Induction of plasma membrane disruption in Candida albicans assessed as accidental type cell death at 4 ug/ml measured after 18 hrs by Annexin V-FITC/propidium iodide staining based flow cytometry (reference value: 1.74 +/- 1.37%); details: dose 4.0 µg/ml
# Candida albicans [29] = test: Anti-adhesive activity against Candida albicans assessed as reduction in […] adhesion to human TR146 cells at 4 ug/ml incubated for 2 hrs prior to cell infection and measured after 2 hrs by colony counting method relative to control; format: functional; parameters: scale not given: the % may be the effect or the level left; details: dose 4 µg/ml; time 4 hrs
# [30] = Induction of adhesive activity against Candida albicans assessed as increase in […] adhesion to human TR146 cells at 2 ug/ml incubated for 2 hrs prior to cell infection and measured after 2 hrs by colony counting method relative to control; format: cell-based; details: tr146, 4 h, dose 2 µg/ml
# Candida albicans [31] = test: Antibiofilm activity against Candida albicans 90028 assessed as cell killing at 128 ug/ml by XTT assay relative to control; format: functional; details: dose 128 µg/ml
# Candida albicans [32] = test: Antibiofilm activity against Candida albicans 90028 assessed as increasing in cell killing by XTT assay; format: functional
# [33] = Cytotoxicity against human TR146 cells assessed as induction of lysosomal membrane permeabilization at 16 ug/ml measured after 18 hrs by AO/propidium iodide staining based confocal laser scanning microscopy; format: cell-based; details: tr146, 18 h, dose 16 µg/ml
# Candida albicans [34] = test: Induction of morphological changes in Candida albicans biofilm infected in human TR146 cells at 16 ug/ml measured after 20 hrs by fluorescence microscopy based QCM-D analysis; format: functional, organism-based; details: dose 16.0 µg/ml
smiles,measurement,setting,value
NNc1ccc(S(=O)(=O)C(Cl)(Cl)Br)cc1[N+](=O)[O-],inhibition of growth at 16 µg/mL,Candida albicans [1],99.9%
same,inhibition of growth at 8 µg/mL,Candida albicans [2],99.9%
same,inhibition of growth at 4 µg/mL,Candida albicans [3],99.7%
same,inhibition of growth at 2 µg/mL,Candida albicans [4],100%
same,inhibition of growth at 1 µg/mL,Candida albicans [5],99.8%
same,inhibition of growth at 0.5 µg/mL,Candida albicans [6],99.7%
same,inhibition of growth at 0.25 µg/mL,Candida albicans [7],98.9%
same,inhibition of growth at 0.125 µg/mL,Candida albicans [8],99.2%
same,inhibition of growth at 0.0625 µg/mL,Candida albicans [9],99.4%
same,inhibition of growth at 0.0313 µg/mL,Candida albicans [10],99.7%
same,inhibition of growth at 16 µg/mL,Candida albicans [11],100%
same,inhibition of growth at 8 µg/mL,Candida albicans [12],100%
same,inhibition of growth at 4 µg/mL,Candida albicans [13],100%
same,inhibition of growth at 2 µg/mL,Candida albicans [14],99.9%
same,inhibition of growth at 1 µg/mL,Candida albicans [15],99.2%
same,inhibition of growth at 0.5 µg/mL,Candida albicans [16],99.2%
same,inhibition of growth at 0.25 µg/mL,Candida albicans [17],98.9%
same,inhibition of growth at 0.125 µg/mL,Candida albicans [18],98.9%
same,inhibition of growth at 0.0625 µg/mL,Candida albicans [19],98.9%
same,inhibition of growth at 0.0313 µg/mL,Candida albicans [20],98.7%
same,MIC90,Candida albicans [21],2 µg/mL
same,MFC,Candida albicans [22],4 µg/mL
same,Activity,Candida albicans [23],63.57%
same,Activity,Vero,43.12%
same,CC50,[24],≥ 8 µg/mL
same,CC50,[25],≥ 16 µg/mL
same,survival,[26],93%
same,Activity,Candida albicans [27],Active
same,Activity,Candida albicans [28],79%
same,Activity,Candida albicans [29],100%
same,fold change (FC),[30],1.03
same,Activity,Candida albicans [31],40%
same,CC50,Candida albicans [32],≤ 128 µg/mL
same,Activity,[33],Non-Toxic
same,Activity,Candida albicans [34],Active

# Reference: ChEMBL document CHEMBL4680208, “Sulfone derivatives enter the cytoplasm of Candida albicans sessile cells” (Eur J Med Chem, 2020)
